The results in this text go back to PubChem BioAssay AID1349 (Sanford-Burnham Center for Chemical Genomics, 2008).

Activity calls are given as the source filed them.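 The calls were made as follows: active = survival above the stress-only control level plus 20 points, here above 50%; inactive = the rest.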

The assay concerns CSM14.1 tunicamycin-induced death, Annexin V/PI flow, 72 h. Nature of the assay: tunicamycin ER stress death protection – cell-based, undifferentiated CSM14.1, flow cytometry, orthogonal assay for ER stress death inhibitor project, SAR follow-up (AID 1349). The note with it: at 25 µM; active compounds read high. In general terms: Flow cytometry measures light scatter and fluorescence of single cells or particles in a stream.

Regarding `COc1ccc(C2CC(=O)C3=C(C2)Nc2ccccc2NC3c2ccccc2C(F)(F)F)cc1OC` (stereo unspecified), the survival is 65%.

On to `COc1ccc(C2CC(=O)C3=C(C2)Nc2ccccc2NC3c2cccc(C(F)(F)F)c2)cc1OC` (stereo unspecified), for which the survival is 82%.

Consider `COc1ccc(C2CC(=O)C3=C(C2)Nc2ccccc2NC3c2cc(C)ccc2C)cc1` (stereo unspecified), for which the survival is 70%.

With `COc1ccc(C2CC(=O)C3=C(C2)Nc2ccccc2NC3c2cccc(Oc3ccccc3)c2)cc1OC` (stereo unspecified), the survival was 54%.

With `CCOc1cccc(C2Nc3ccccc3NC3=C2C(=O)CC(c2ccc(OC)cc2)C3)c1` (stereo unspecified), the survival is 49% (inactive).

As to `CSc1ccc(C2Nc3ccccc3NC3=C2C(=O)CC(c2ccccc2)C3)cc1` (stereo unspecified), the survival is 62%.

Consider `CCOc1cc(C2Nc3ccccc3NC3=C2C(=O)CC(c2ccc(OC)cc2)C3)cc(Cl)c1O` (stereo unspecified), for which the survival is 52%.

On to `CCCOc1ccc(C2Nc3ccccc3NC3=C2C(=O)CC(c2ccc(OC)c(OC)c2)C3)cc1` (stereo unspecified), for which the survival was 74%.

For the compound `CC1(C)CC(=O)C2=C(C1)Nc1ccccc1NC2c1ccc(-c2ccccc2)cc1` (stereo unspecified), the survival is 92%.

For the compound `COc1ccc(C2CC(=O)C3=C(C2)Nc2ccccc2NC3c2cccc(Br)c2)cc1OC` (stereo unspecified), the survival is 67%.

Regarding `O=C1CC(c2ccccc2)CC2=C1C(c1c(F)cccc1Cl)Nc1ccccc1N2` (stereo unspecified), the survival was 58%.
